Where two headings read alike, the source gives them in different places.
How the values were obtained:
[1] = system: lung cancer; conditions: all lung cancer patients, not selected for mutant EGFR; cited from earlier work
[2] = system: activated and resistant T790M forms of EGFR; assay: In vitro cellular assays, overall statement; assay type: cell-based; conditions: result in words
Procedure: (§1) Effects of test compounds on in vitro proliferation were measured by MTS cell viability assay.

[3] = system: EGFR (L858R) (h); assay type: biochemical, human
Procedure: (§2) Assay conditions included 10 μM ATP and 100 nM test compounds.
(§3) All reactions are initiated by the addition of the MgATP mix. After incubation for 40 minutes at room temperature, the reaction is stopped by the addition of 3% phosphoric acid solution. 10 μL of the reaction is then spotted onto a P30 filtermat and washed three times for 5 minutes in 75 mM phosphoric acid and once in methanol prior to drying and scintillation counting. […] The experiment is carried out in duplicate. The value for the control sample (DMSO) was set to 100%, and the values for the compound-treated samples were expressed as activity relative to the control sample.
(§4) (specific activity approx. 500 cpm/pmol, concentration as required) and 0.1 μM test compound.

[4] = system: ALK (h); assay type: biochemical, human; conditions: 0.1 μM test compound, 10 μM ATP; remaining activity relative to DMSO control = 100%
Procedure: as §2
(§5) All reactions are initiated by the addition of the MgATP mix. After incubation for 40 minutes at room temperature, the reaction is stopped by the addition of 3% phosphoric acid solution. 10 μL of the reaction is then spotted onto a P30 filtermat and washed three times for 5 minutes in 75 mM phosphoric acid and once in methanol prior to drying and scintillation counting. This assay is performed by Millipore. The experiment is carried out in duplicate. The value for the control sample (DMSO) was set to 100%, and the values for the compound-treated samples were expressed as activity relative to the control sample.

[5] = system: EGFR (T790M) (h); assay type: biochemical, human
Procedure: as §2, §5

[6] = system: EGFR (T790M, L858R) (h); assay type: biochemical, human
Procedure: as §2, §3, §4

[7] = system: EGFR (h); assay type: biochemical, human
Procedure: as §2, §3, §4

[8] = system: A431 (EGFR WT) cells; assay: Cell proliferation assay (MTS cell viability); assay type: cell-based; conditions: Homo sapiens, A-431, 72 h, 3 days of exposure
Procedure: as §1
A431 cells were maintained in DMEM (Gibco) supplemented with 10% FBS, 100 units/mL penicillin, 100 units/mL streptomycin, and 2 mM glutamine.
2. Prepare test compounds in each well with a final medium volume of 200 μl;
3. Incubate for 3 days of exposure;
4. Prepare reagents following the instructions in the Cell Proliferation Assay kit (Promega);
5. Change to serum-free medium with a final volume of 100 μl/well. Prepare a set of wells with medium only for background subtraction;
6. Add 20 μl MTS solution containing PMS to each well (final concentration of MTS will be 0.33 mg/ml);
7. Incubate 1 to 4 hours at 37° C. in a humidified, 5% CO2 atmosphere.
8. Record absorbance at 490 nm using VICTOR™X5 plate reader (PerkinElmer).
(§6) All experimental points were set up in three wells and all experiments were repeated at least three times.

[9] = system: HCC827 (EGFR Del) NSCLC cells; assay: Cell proliferation assay (MTS cell viability); assay type: cell-based; conditions: Homo sapiens, 72 h, 3 days of exposure
Procedure: as §1
(§7) Prepare test compounds in each well with a final medium volume of 200 μl;
Incubate for 3 days of exposure;
(§8) Prepare reagents following the instructions in the Cell Proliferation Assay kit (Promega);
(§9) Change to serum-free medium with a final volume of 100 μl/well. Prepare a set of wells with medium only for background subtraction;
(§10) Add 20 μl MTS solution containing PMS to each well (final concentration of MTS will be 0.33 mg/ml);
(§11) Incubate 1 to 4 hours at 37° C. in a humidified, 5% CO2 atmosphere.
(§12) Record absorbance at 490 nm using VICTOR™X5 plate reader (PerkinElmer).
as §6

[10] = system: H1975 (EGFR L858R/T790M) NSCLC cells; assay: Cell proliferation assay (MTS cell viability); assay type: cell-based; conditions: Homo sapiens, NCI-H1975, 72 h, 3 days of exposure
Procedure: as §1, §7
Incubate for 3 days of exposure;
as §8, §9, §10, §11, §12, §6

[11] = system: A549 (EGFR WT) NSCLC cells; assay: Cell proliferation assay (MTS cell viability); assay type: cell-based; conditions: Homo sapiens, 72 h, 3 days of exposure
Procedure: as §1
A549 cells were maintained in Ham's F12K medium (Gibco) supplemented with 10% FBS, 100 units/mL penicillin, 100 units/mL streptomycin, and 2 mM glutamine.
as §7
Incubate for 3 days of exposure;
as §8, §9, §10, §11, §12, §6

[12] = 0.1 μM test compound, 10 μM ATP, remaining activity relative to DMSO control = 100%

## C#Cc1cccc(Nc2ncnc3cc(OCCOC)c(OCCOC)cc23)c1 [erlotinib]
[1]
  likelihood of tumor shrinkage (response rate): 8-10%
  median time to tumor progression: approximately 2 months

## COc1cc(Nc2ncc(Cl)c(Nc3ccccc3C(=O)C(=O)N(C)C)n2)ccc1N1CCC(N(C)C)CC1 [Example 118, 2-(2-(5-chloro-2-(4-(4-(dimethylamino)piperidin-1-yl)-3-methoxyphenylamino)pyrimidin-4-ylamino)phenyl)-N,N-dimethyl-2-oxoacetamide]
[2]
  activity against both activated and resistant T790M forms of EGFR in vitro cellular assays: potent activity
[3]
  Activity (control) % EGFR (L858R) (h): 29%
[4]
  Activity (control) % ALK (h): 3%
[5]
  Activity (control) % EGFR (T790M) (h): 18%
[6]
  Activity (control) % EGFR (T790M, L858R) (h): 2%
[7]
  Activity (control) % EGFR (h): 82%

## C=CC(=O)Nc1cc(Nc2ncc(Cl)c(Nc3ccccc3C(=O)C(=O)N(C)C)n2)c(OC)cc1N1CCN(C)CC1 [Example 74, N-(5-(5-chloro-4-(2-(2-(dimethylamino)-2-oxoacetyl)phenylamino)pyrimidin-2-ylamino)-4-methoxy-2-(4-methylpiperazin-1-yl)phenyl)acrylamide]
[8]
  IC50: 50 nM
[4]
  Activity (control) % ALK (h): 9%
[5]
  Activity (control) % EGFR (T790M) (h): 62%
[9]
  IC50: 30 nM
[10]
  IC50: 50 nM
[7]
  Activity (control) % EGFR (h): 110%
[11]
  IC50: 620 nM

## C=CC(=O)Nc1cc(Nc2ncc(Cl)c(Nc3ccccc3C(=O)C(=O)N(C)C)n2)c(OC)cc1F [Example 66, N-(5-(5-chloro-4-(2-(2-(dimethylamino)-2-oxoacetyl)phenylamino)pyrimidin-2-ylamino)-2-fluoro-4-methoxyphenyl)acrylamide]
[2]
  activity against both activated and resistant T790M forms of EGFR in vitro cellular assays: potent activity
[4]
  Activity (control) % ALK (h): 35%
[5]; [12]
  Activity (control) % EGFR (T790M) (h): 66%
[6]; [12]
  Activity (control) % EGFR (T790M, L858R) (h): 24%

## C=C(CN1CCOCC1)C(=O)Nc1cccc(Nc2ncc(Cl)c(Nc3ccccc3C(=O)C(=O)N(C)C)n2)c1 [Example 112, N-(3-(5-chloro-4-(2-(2-(dimethylamino)-2-oxoacetyl)phenylamino)pyrimidin-2-ylamino)phenyl)-2-(morpholinomethyl)acrylamide]
[2]
  activity against both activated and resistant T790M forms of EGFR in vitro cellular assays: potent activity
[3]; [12]
  Activity (control) % EGFR (L858R) (h): 66%
[4]
  Activity (control) % ALK (h): 21%
[5]; [12]
  Activity (control) % EGFR (T790M) (h): 14%
[6]; [12]
  Activity (control) % EGFR (T790M, L858R) (h): 1%
[7]; [12]
  Activity (control) % EGFR (h): 85%

## C=CC(=O)Nc1cc(Nc2ncc(Cl)c(Nc3ccccc3C(=O)C(=O)N(C)C)n2)ccc1OC [Example 65, N-(5-(5-chloro-4-(2-(2-(dimethylamino)-2-oxoacetyl)phenylamino)pyrimidin-2-ylamino)-2-methoxyphenyl)acrylamide]
[2]
  activity against both activated and resistant T790M forms of EGFR in vitro cellular assays: potent activity
[4]
  Activity (control) % ALK (h): 19%
[5]; [12]
  Activity (control) % EGFR (T790M) (h): 80%
[6]; [12]
  Activity (control) % EGFR (T790M, L858R) (h): 25%

## C=CC(=O)Nc1ccc(OC)c(Nc2ncc(Cl)c(Nc3ccccc3C(=O)C(=O)N(C)C)n2)c1 [Example 67, N-(3-(5-chloro-4-(2-(2-(dimethylamino)-2-oxoacetyl)phenylamino)pyrimidin-2-ylamino)-4-methoxyphenyl)acrylamide]
[2]
  activity against both activated and resistant T790M forms of EGFR in vitro cellular assays: potent activity
[3]
  Activity (control) % EGFR (L858R) (h): 85%
[4]
  Activity (control) % ALK (h): 13%
[5]
  Activity (control) % EGFR (T790M) (h): 50%
[6]
  Activity (control) % EGFR (T790M, L858R) (h): 9%

## COc1ccc(NC(=O)/C=C/CN2CCOCC2)cc1Nc1ncc(Cl)c(Nc2ccccc2C(=O)C(=O)N(C)C)n1 [Example 79, (E)-N-(3-(5-chloro-4-(2-(2-(dimethylamino)-2-oxoacetyl)phenylamino)pyrimidin-2-ylamino)-4-methoxyphenyl)-4-morpholinobut-2-enamide]
[3]; [12]
  Activity (control) % EGFR (L858R) (h): 25%
[4]
  Activity (control) % ALK (h): 7%
[5]; [12]
  Activity (control) % EGFR (T790M) (h): 16%
[6]; [12]
  Activity (control) % EGFR (T790M, L858R) (h): 2%
[7]; [12]
  Activity (control) % EGFR (h): 92%

## COc1cc(N2CCC(N(C)C)CC2)ccc1Nc1ncc(Cl)c(Nc2ccccc2C(=O)C(N)=O)n1 [Example 4, 2-(2-(5-chloro-2-(4-(4-(dimethylamino)piperidin-1-yl)-2-methoxyphenylamino)pyrimidin-4-ylamino)phenyl)-2-oxoacetamide]
[3]
  Activity (control) % EGFR (L858R) (h): 8%
[4]
  Activity (control) % ALK (h): 8%
[5]
  Activity (control) % EGFR (T790M) (h): 4%
[6]
  Activity (control) % EGFR (T790M, L858R) (h): 2%
[7]
  Activity (control) % EGFR (h): 65%

Reference: US9783524B2, “Protein tyrosine kinase modulators and methods of use” (BETTA PHARMACEUTICALS CO., LTD., priority 2013, dated 2017)
